Assay results from article PMC7450990 (Journal of medicinal chemistry, 2019).

Experiments:
[1] = tested on: Hh pathway (endogenous Gli1 mRNA levels), ASZ-001 cells; details: at the concentrations tested
[2] = tested on: Hh pathway (endogenous Gli1 mRNA levels), ASZ-001 cells; assay: cells; details: Mus musculus, ASZ001, 48 h, read-out: IC50 (Hh pathway inhibition, Gli1 mRNA), ASZ-001 cells, 48 h incubation, Mean ± SEM
[3] = Metabolic stability; details: human, microsomes
[4] = target: CYP3A4 (Homo sapiens, UniProt P08684); assay: CYP3A4 inhibition
[5] = target: T1, Breast Cancer Resistance Protein (BCRP) (Homo sapiens, UniProt Q9UNQ0); assay: Efflux pump substrate, BCRP; type: in vitro ADME
T1 sequence (Q9UNQ0 1-655): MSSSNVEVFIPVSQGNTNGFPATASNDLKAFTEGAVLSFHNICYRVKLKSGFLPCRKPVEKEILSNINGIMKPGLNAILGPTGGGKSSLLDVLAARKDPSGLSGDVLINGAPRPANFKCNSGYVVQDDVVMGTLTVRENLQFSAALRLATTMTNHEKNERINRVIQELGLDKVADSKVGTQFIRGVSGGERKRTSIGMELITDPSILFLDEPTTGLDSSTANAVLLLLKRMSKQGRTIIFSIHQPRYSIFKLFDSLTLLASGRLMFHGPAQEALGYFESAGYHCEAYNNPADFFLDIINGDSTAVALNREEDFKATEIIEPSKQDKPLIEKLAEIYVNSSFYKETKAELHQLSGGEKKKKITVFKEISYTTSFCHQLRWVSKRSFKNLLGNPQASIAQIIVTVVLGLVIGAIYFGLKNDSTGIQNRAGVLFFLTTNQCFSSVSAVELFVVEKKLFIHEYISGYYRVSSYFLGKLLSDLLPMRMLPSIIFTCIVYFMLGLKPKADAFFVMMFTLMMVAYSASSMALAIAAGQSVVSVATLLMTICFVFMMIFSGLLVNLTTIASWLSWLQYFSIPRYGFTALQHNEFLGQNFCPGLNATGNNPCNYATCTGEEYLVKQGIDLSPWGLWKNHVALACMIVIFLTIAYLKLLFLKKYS

[6] = target: P-glycoprotein (P-gp) (Homo sapiens, UniProt P08183); assay: Efflux pump substrate, P-gp; type: in vitro ADME
[7] = Parallel artificial membrane permeability assay; details: hexadecane membrane

CYP3A4, sequence (P08684 whole entry): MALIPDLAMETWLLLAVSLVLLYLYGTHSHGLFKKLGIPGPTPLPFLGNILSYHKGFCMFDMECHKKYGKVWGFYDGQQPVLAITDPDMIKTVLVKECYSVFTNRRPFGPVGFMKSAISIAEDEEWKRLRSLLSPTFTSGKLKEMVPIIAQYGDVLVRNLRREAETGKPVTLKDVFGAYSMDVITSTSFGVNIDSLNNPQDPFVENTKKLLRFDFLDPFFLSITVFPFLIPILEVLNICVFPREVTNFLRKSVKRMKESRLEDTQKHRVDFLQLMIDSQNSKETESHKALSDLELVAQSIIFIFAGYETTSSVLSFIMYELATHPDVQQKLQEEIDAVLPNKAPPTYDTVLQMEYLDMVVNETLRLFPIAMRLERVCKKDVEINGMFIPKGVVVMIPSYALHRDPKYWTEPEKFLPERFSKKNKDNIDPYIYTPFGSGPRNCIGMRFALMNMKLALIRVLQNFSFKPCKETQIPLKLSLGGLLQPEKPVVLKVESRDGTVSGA
P-glycoprotein (P-gp), sequence (P08183 whole entry): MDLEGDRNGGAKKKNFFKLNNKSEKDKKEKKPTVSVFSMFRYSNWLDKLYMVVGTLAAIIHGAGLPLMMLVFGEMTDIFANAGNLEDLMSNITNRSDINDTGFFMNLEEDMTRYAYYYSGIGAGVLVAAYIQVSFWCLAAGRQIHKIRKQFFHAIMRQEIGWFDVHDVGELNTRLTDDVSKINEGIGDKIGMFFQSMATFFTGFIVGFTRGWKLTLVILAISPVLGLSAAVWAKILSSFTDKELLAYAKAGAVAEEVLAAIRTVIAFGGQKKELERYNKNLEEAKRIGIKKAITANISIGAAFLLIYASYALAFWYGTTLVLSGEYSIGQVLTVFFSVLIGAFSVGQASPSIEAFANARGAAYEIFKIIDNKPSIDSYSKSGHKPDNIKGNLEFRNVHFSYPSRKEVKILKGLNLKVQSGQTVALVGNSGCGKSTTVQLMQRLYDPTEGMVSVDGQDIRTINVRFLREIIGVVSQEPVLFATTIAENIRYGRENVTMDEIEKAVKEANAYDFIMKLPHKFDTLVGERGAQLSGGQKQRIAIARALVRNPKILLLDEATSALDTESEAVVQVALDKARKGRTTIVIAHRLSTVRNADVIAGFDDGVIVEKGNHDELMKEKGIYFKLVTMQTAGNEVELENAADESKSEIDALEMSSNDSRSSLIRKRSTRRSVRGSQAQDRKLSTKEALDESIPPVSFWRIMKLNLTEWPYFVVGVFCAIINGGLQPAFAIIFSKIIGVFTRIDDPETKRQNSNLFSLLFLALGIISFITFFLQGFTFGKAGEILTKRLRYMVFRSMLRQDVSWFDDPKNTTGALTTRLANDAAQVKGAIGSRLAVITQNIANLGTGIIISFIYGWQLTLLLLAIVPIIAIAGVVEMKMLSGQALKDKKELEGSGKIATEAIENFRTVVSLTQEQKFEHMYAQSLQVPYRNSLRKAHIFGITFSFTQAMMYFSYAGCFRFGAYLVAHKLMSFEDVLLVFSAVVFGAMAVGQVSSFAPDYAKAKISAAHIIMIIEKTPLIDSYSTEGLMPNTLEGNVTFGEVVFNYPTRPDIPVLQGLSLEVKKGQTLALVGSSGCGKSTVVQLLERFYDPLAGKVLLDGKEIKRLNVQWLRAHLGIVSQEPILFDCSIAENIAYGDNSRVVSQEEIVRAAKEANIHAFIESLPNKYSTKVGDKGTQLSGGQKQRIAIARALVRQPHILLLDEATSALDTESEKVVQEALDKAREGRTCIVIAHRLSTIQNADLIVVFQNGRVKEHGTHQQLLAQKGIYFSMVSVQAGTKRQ

In the case of `C[C@]1(c2ccc(Cl)cc2Cl)OC[C@@H](COc2ccc(N3CCN(c4ccc(NC(=O)c5ccsc5)cc4)CC3)cc2)O1` [Compound 36, N-(4-(4-(4-(((2S,4R)-2-(2,4-dichlorophenyl)-2-methyl-1,3-dioxolan-4-yl)methoxy)phenyl)piperazin-1-yl)phenyl)thiophene-3-carboxamide], the “Hh pathway inhibition, result in words” value [1] is reported as “inactive”.
With `C[C@@]1(c2ccc(Cl)cc2Cl)OC[C@@H](COc2ccc(N3CCN(c4ccc(NC(=O)c5ccc6ccccc6c5)cc4)CC3)cc2)O1` [Compound 11, N-(4-(4-(4-(((2R,4R)-2-(2,4-dichlorophenyl)-2-methyl-1,3-dioxolan-4-yl)methoxy)phenyl)piperazin-1-yl)phenyl)-2-naphthamide] the IC50 [2] was greater than 10 µM.
`C[C@@]1(c2ccc(Cl)cc2Cl)OC[C@@H](COc2ccc(N3CCN(c4ccc(NC(=O)c5ccccc5)cc4)CC3)cc2)O1` [Compound 10, N-(4-(4-(4-(((2R,4R)-2-(2,4-dichlorophenyl)-2-methyl-1,3-dioxolan-4-yl)methoxy)phenyl)piperazin-1-yl)phenyl)benzamide] gave an IC50 [2] greater than 10 µM.
Compound `C[C@@]1(c2ccc(Cl)cc2Cl)OC[C@@H](COc2ccc(N3CCN(c4ccc(NC(=O)c5cccc(O)c5)cc4)CC3)cc2)O1` [Compound 27, N-(4-(4-(4-(((2R,4R)-2-(2,4-dichlorophenyl)-2-methyl-1,3-dioxolan-4-yl)methoxy)phenyl)piperazin-1-yl)phenyl)-3-hydroxybenzamide] has a microsomal CLint [3] of less than 3 µL/min/mg and an IC50 [4] greater than 30 µM.
`C[C@]1(c2ccc(Cl)cc2Cl)OC[C@@H](COc2ccc(N3CCN(c4ccc(NC(=O)c5ccc6ccccc6c5)cc4)CC3)cc2)O1` [Compound 16, N-(4-(4-(4-(((2S,4R)-2-(2,4-dichlorophenyl)-2-methyl-1,3-dioxolan-4-yl)methoxy)phenyl)piperazin-1-yl)phenyl)-2-naphthamide] gave an IC50 [2] greater than 10 µM.
Compound `C[C@]1(c2ccc(Cl)cc2Cl)OC[C@@H](COc2ccc(N3CCN(c4ccc(NC(=O)c5cccnc5)cc4)CC3)cc2)O1` [Compound 18, N-(4-(4-(4-(((2S,4R)-2-(2,4-dichlorophenyl)-2-methyl-1,3-dioxolan-4-yl)methoxy)phenyl)piperazin-1-yl)phenyl)nicotinamide] has an IC50 [4] greater than 20 µM.
With `C[C@]1(c2ccc(Cl)cc2Cl)OC[C@@H](COc2ccc(N3CCN(c4ccc(NC(=O)c5ccncc5)cc4)CC3)cc2)O1` [Compound 19, N-(4-(4-(4-(((2S,4R)-2-(2,4-dichlorophenyl)-2-methyl-1,3-dioxolan-4-yl)methoxy)phenyl)piperazin-1-yl)phenyl)isonicotinamide] the IC50 [2] was greater than 10 µM.
With `C[C@]1(c2ccc(Cl)cc2Cl)OC[C@@H](COc2ccc(N3CCN(c4ccc(NC(=O)c5ccccc5)cc4)CC3)cc2)O1` [Compound 15, N-(4-(4-(4-(((2S,4R)-2-(2,4-dichlorophenyl)-2-methyl-1,3-dioxolan-4-yl)methoxy)phenyl)piperazin-1-yl)phenyl)benzamide] the IC50 [2] was greater than 10 µM.
`C[C@@]1(c2ccc(Cl)cc2Cl)OC[C@@H](COc2ccc(N3CCN(c4ccc(NC(=O)c5ccncc5)cc4)CC3)cc2)O1` [Compound 14, N-(4-(4-(4-(((2R,4R)-2-(2,4-dichlorophenyl)-2-methyl-1,3-dioxolan-4-yl)methoxy)phenyl)piperazin-1-yl)phenyl)isonicotinamide] gave an IC50 [2] greater than 10 µM.
With `CCC(C)n1ncn(-c2ccc(N3CCN(c4ccc(OCC5COC(Cn6cncn6)(c6ccc(Cl)cc6Cl)O5)cc4)CC3)cc2)c1=O` (stereo not shown) [ITZ, Itraconazole] the half-life [3] was 27 ± 6.2 min, the “Efflux Pump Substrates, BCRP” value [5] was “not a substrate” and the “Efflux Pump Substrates, P-gp” value [6] was “not a substrate”.
For `CC[C@@H](C)n1ncn(-c2ccc(N3CCN(c4ccc(OC[C@@H]5CO[C@@](C)(c6ccc(Cl)cc6Cl)O5)cc4)CC3)cc2)c1=O` [Compound 2b], the “PAMPA -log Pe” value [7] was 9.0 and the IC50 [4] was 1.02 µM.
In the case of `C[C@]1(c2ccc(Cl)cc2Cl)OC[C@@H](COc2ccc(N3CCN(c4ccc(NC(=O)c5ccoc5)cc4)CC3)cc2)O1` [Compound 35, N-(4-(4-(4-(((2S,4R)-2-(2,4-dichlorophenyl)-2-methyl-1,3-dioxolan-4-yl)methoxy)phenyl)piperazin-1-yl)phenyl)furan-3-carboxamide], the “Hh pathway inhibition, result in words” value [1] is reported as “inactive”.
For `C[C@@]1(c2ccc(Cl)cc2Cl)OC[C@@H](COc2ccc(N3CCN(c4ccc(NC(=O)c5cccnc5)cc4)CC3)cc2)O1` [Compound 13, N-(4-(4-(4-(((2R,4R)-2-(2,4-dichlorophenyl)-2-methyl-1,3-dioxolan-4-yl)methoxy)phenyl)piperazin-1-yl)phenyl)nicotinamide], the “PAMPA -log Pe” value [7] was 7.9 ± 0.03 and the IC50 [4] was greater than 30 µM.
For `CC[C@@H](C)n1ncn(-c2ccc(N3CCN(c4ccc(OC[C@@H]5CO[C@](C)(c6ccc(Cl)cc6Cl)O5)cc4)CC3)cc2)c1=O` [Compound 2a], the IC50 [4] was greater than 20 µM.
